Test results from patent US6020521A, “Macrolide LHRH antagonists” (Abbott Laboratories, priority 1998, dated 2000).

target: T1, LHRH rat pituitary receptor (Rattus norvegicus, UniProt P30969); experiment: LHRH rat pituitary receptor binding (pKI); conditions: receptor binding affinity, negative logarithm of the equilibrium dissociation constants
T1 construct: from tissue; host or cells: rat pituitary
T1 sequence (P30969 1-327): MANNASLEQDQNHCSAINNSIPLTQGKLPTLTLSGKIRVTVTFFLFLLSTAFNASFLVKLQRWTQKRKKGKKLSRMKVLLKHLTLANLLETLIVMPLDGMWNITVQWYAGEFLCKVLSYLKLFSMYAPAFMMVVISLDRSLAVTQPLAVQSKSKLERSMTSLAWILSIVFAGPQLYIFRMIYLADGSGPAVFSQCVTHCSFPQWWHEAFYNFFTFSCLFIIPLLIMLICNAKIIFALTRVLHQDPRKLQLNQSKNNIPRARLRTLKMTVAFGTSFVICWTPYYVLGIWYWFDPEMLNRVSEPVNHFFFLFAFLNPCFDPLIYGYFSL
Description: Representative compounds of the present invention were evaluated in in vitro tests for LHRH rat pituitary receptor binding (pKI) and for LH inhibition from rat pituitary cells for antagonist potency (pA2). The tests employed the methods detailed in F. Haviv, et al. J. Med. Chem., 32: 2340-2344 (1989). The receptor binding affinity (pKI) is the negative logarithm of the equilibrium dissociation constants.

Structure (SMILES)	Ki	p KI
CC[C@H]1OC(=O)[C@H](C)[C@@H](OC(=O)N2C(=O)OC[C@@H]2C)[C@H](C)[C@@H](O[C@@H]2O[C@H](C)C[C@H](NC(C)C)[C@H]2O)[C@](C)(OC)C[C@@H](C)C(=O)[C@H](C)[C@H]2N(CCc3ccc(Cl)cc3)C(=O)O[C@]12C [Example 7, 11-Deoxy-11-[carboxy(4-chlorophenethyl)amino]-5-O-(3'-bis-N-desmethyl-3'-N-isopropyl)desosaminyl-3-O-[4-(S)-methyl-oxazolidin-2-one]carbamoyl-6-O-methyl-erythronolide A 11,12-(cyclic carbamate)]	3.55 nM	
CC[C@H]1OC(=O)[C@H](C)[C@@H](OC(=O)N2COC[C@H]2C)[C@H](C)[C@@H](O[C@@H]2O[C@H](C)C[C@H](N(C)C(C)C)[C@H]2O)[C@](C)(OC)C[C@@H](C)C(=O)[C@H](C)[C@H]2N(CCc3ccc(Cl)cc3)C(=O)O[C@]12C [Example 8, 11-Deoxy-11-[carboxy(4-chlorophenethyl)amino]-5-O-(3'-N-desmethyl-3'-N-isopropyl)desosaminyl-3-O-[4-(R)-methyl-oxazolidine]carbamoyl-6-O-methyl-erythronolide A 11,12-(cyclic carbamate)]	11.7 nM	
CC[C@H]1OC(=O)[C@H](C)[C@@H](OC(=O)C2CCOC2)[C@H](C)[C@@H](O[C@@H]2O[C@H](C)C[C@H](N(C)C(C)C)[C@H]2O)[C@](C)(OC)C[C@@H](C)C(=O)[C@H](C)[C@H]2N(CCc3ccc(Cl)cc3)C(=O)O[C@]12C (stereo partly drawn) [Example 9, 11-Deoxy-11-[carboxy(4-chlorophenethyl)amino]-5-O-(3'-N-desmethyl-3'-N-isopropyl)desosaminyl-3-O-(tetrahydro-3-furoyl)-6-O-methyl-erythronolide A 11 12-(cyclic carbamate)]		7.85
CCC1OC(=O)C(C)C(OC(=O)C2CCOC2)C(C)C(OC2OC(C)CC(NC(C)C)C2O)C(C)(OC)CC(C)C(=O)C(C)C2N(CCc3ccc(Cl)cc3)C(=O)OC12C (stereo not drawn) [Example 10, 11-Deoxy-11-[carboxy(4-chlorophenethyl)amino]-5-O-(3'-bis-N-desmethyl-3'-N-isopropyl)desosaminyl-3-O-(tetrahydro-3-furoyl)-6-O-methyl-erythronolide A 11,12-(cyclic carbamate)]		8.09
CC[C@H]1OC(=O)[C@H](C)[C@@H](OC(=O)N2C(=O)OC[C@@H]2C)[C@H](C)[C@@H](O[C@@H]2O[C@H](C)C[C@H](N(C)C)[C@H]2O)[C@](C)(OC)C[C@@H](C)C(=O)[C@H](C)[C@H]2N(CCc3ccc(Cl)c(Cl)c3)C(=O)O[C@]12C [Example 11, 11-Deoxy-11-[carboxy(3,4-dichlorophenethyl)amino]-3-O-[4-(S)-methyl-oxazolidin-2-one]carbamoyl-5-O-desosaminyl-6-O-methyl-erythronolide A 11,12-(cyclic carbamate)]	3.16 nM	
CC[C@H]1OC(=O)[C@H](C)[C@@H](OC(=O)N2C(=O)OC[C@@H]2C)[C@H](C)[C@@H](O[C@@H]2O[C@H](C)C[C@H](N(C)C3CCC3)[C@H]2O)[C@](C)(OC)C[C@@H](C)C(=O)[C@H](C)[C@H]2N(CCc3ccc(Cl)c(Cl)c3)C(=O)O[C@]12C [Example 13, 11-Deoxy-11-[carboxy(3,4-dichlorophenethyl)amino]-3-O-[4-(S)-methyl-oxazolidin-2-one]carbamoyl-5-O-(3'-N-desmethyl-3'-N-cyclobutyl)desosaminyl-6-O-methyl-erythronolide A 11,12-(cyclic carbamate)]	3.09 nM	
CC[C@H]1OC(=O)[C@H](C)[C@@H](OC(=O)N2C(=O)OC[C@@H]2C)[C@H](C)[C@@H](O[C@@H]2O[C@H](C)C[C@H](N(C)C3CCCCC3)[C@H]2O)[C@](C)(OC)C[C@@H](C)C(=O)[C@H](C)[C@H]2N(CCc3ccc(Cl)c(Cl)c3)C(=O)O[C@]12C [Example 15, 11-Deoxy-11-[carboxy(3,4-dichlorophenethyl)amino]-3-O-[4-(S)-methyl-oxazolidin-2-one]carbamoyl-5-O-(3'-N-desmethyl-3'-N-cyclohexyl)desosaminyl-6-O-methyl-erythronolide A 11,12-(cyclic carbamate)]	3.89 nM	
CCCN(C)[C@H]1C[C@@H](C)O[C@@H](O[C@@H]2[C@@H](C)[C@H](OC(=O)N3C(=O)OC[C@@H]3C)[C@@H](C)C(=O)O[C@H](CC)[C@@]3(C)OC(=O)N(CCc4ccc(Cl)c(Cl)c4)[C@@H]3[C@@H](C)C(=O)[C@H](C)C[C@@]2(C)OC)[C@@H]1O [Example 16, 11-Deoxy-11-[carboxy(3,4-dichlorophenethyl)amino]-3-O-[4-(S)-methyl-oxazolidin-2-one]carbamoyl-5-O-(3'-N-desmethyl-3'-N-n-propyl)desosaminyl-6-O-methyl-erythronolide A 11,12-(cyclic carbamate)]	3.98 nM	
CC[C@H]1OC(=O)[C@H](C)[C@@H](OC(=O)N2C(=O)OC[C@@H]2C)[C@H](C)[C@@H](O[C@@H]2O[C@H](C)C[C@H](N(C)CC(C)C)[C@H]2O)[C@](C)(OC)C[C@@H](C)C(=O)[C@H](C)[C@H]2N(CCc3ccc(Cl)c(Cl)c3)C(=O)O[C@]12C [Example 17, 11-Deoxy-11-[carboxy(3,4-dichlorophenethyl)amino]-3-O-[4-(S)-methyl-oxazolidin-2-one]carbamoyl-5-O-(3'-N-desmethyl-3'-N-isobutyl)desosaminyl-6-O-methyl-erythronolide A 11,12-(cyclic carbamate)]	0.562 nM	
CC[C@H]1OC(=O)[C@H](C)[C@@H](OC(=O)N2C(=O)OC[C@@H]2C)[C@H](C)[C@@H](O[C@@H]2O[C@H](C)C[C@H](N(C)CC3CCC3)[C@H]2O)[C@](C)(OC)C[C@@H](C)C(=O)[C@H](C)[C@H]2N(CCc3ccc(Cl)c(Cl)c3)C(=O)O[C@]12C [Example 18, 11-Deoxy-11-[carboxy(3,4-dichlorophenethyl)amino]-3-O-[4-(S)-methyl-oxazolidin-2-one]carbamoyl-5-O-(3'-N-desmethyl-3'-N-cyclobutylmethyl)desosaminyl-6-O-methyl-erythronolide A 11,12-(cyclic carbamate)]	0.933 nM	
CC[C@H]1OC(=O)[C@H](C)[C@@H](OC(=O)N2C(=O)OC[C@@H]2C)[C@H](C)[C@@H](O[C@@H]2O[C@H](C)C[C@H](N(CC)C(C)C)[C@H]2O)[C@](C)(OC)C[C@@H](C)C(=O)[C@H](C)[C@H]2N(CCc3ccc(Cl)c(Cl)c3)C(=O)O[C@]12C [Example 20, 11-Deoxy-11-[carboxy(3,4-dichlorophenethyl)amino]-3-O-[4-(S)-methyl-oxazolidin-2-one]carbamoyl-5-O-(3'-bis-N-desmethyl-3'-N-ethyl-3'-N-isopropyl)desosaminyl-6-O-methyl-erythronolide A 11,12-(cyclic carbamate)]	0.589 nM	
CCCN(C(C)C)[C@H]1C[C@@H](C)O[C@@H](O[C@@H]2[C@@H](C)[C@H](OC(=O)N3C(=O)OC[C@@H]3C)[C@@H](C)C(=O)O[C@H](CC)[C@@]3(C)OC(=O)N(CCc4ccc(Cl)c(Cl)c4)[C@@H]3[C@@H](C)C(=O)[C@H](C)C[C@@]2(C)OC)[C@@H]1O [Example 21, 11-Deoxy-11-[carboxy(3,4-dichlorophenethyl)amino]-3-O-[4-(S)-methyl-oxazolidin-2-one]carbamoyl-5-O-(3'-bis-N-desmethyl-3'-N-n-propyl-3'-N-isopropyl)desosaminyl-6-O-methyl-erythronolide A 11,12-(cyclic carbamate)]	0.245 nM	
CC[C@H]1OC(=O)[C@H](C)[C@@H](OC(=O)N2C(=O)OC[C@@H]2C)[C@H](C)[C@@H](O[C@@H]2O[C@H](C)C[C@H](N(CC3CC3)C(C)C)[C@H]2O)[C@](C)(OC)C[C@@H](C)C(=O)[C@H](C)[C@H]2N(CCc3ccc(Cl)c(Cl)c3)C(=O)O[C@]12C [Example 22, 11-Deoxy-11-[carboxy(3,4-dichlorophenethyl)amino]-3-O-[4-(S)-methyl-oxazolidin-2-one]carbamoyl-5-O-(3'-bis-N-desmethyl-3'-N-cyclopropylmethyl-3'-N-isopropyl)desosaminyl-6-O-methyl-erythronolide A 11,12-(cyclic carbamate)]	0.0741 nM	
CC[C@H]1OC(=O)[C@H](C)[C@@H](OC(=O)N2C(=O)OC[C@@H]2C)[C@H](C)[C@@H](O[C@@H]2O[C@H](C)C[C@H](N(C)CC3CC3)[C@H]2O)[C@](C)(OC)C[C@@H](C)C(=O)[C@H](C)[C@H]2N(CCc3ccc(Cl)cc3)C(=O)O[C@]12C [Example 23, 11-Deoxy-11-[carboxy(4-chlorophenethyl)amino]-3-O-[4-(S)-methyl-oxazolidin-2-one]carbamoyl-5-O-(3'-N-desmethyl-3'-N-cyclopropylmethyl)desosaminyl-6-O-methyl-erythronolide A 11,12-(cyclic carbamate)]	1.45 nM	
CC[C@H]1OC(=O)[C@H](C)[C@@H](OC(=O)N2C(=O)OC[C@@H]2C)[C@H](C)[C@@H](O[C@@H]2O[C@H](C)C[C@H](N(C)C3CCC3)[C@H]2O)[C@](C)(OC)C[C@@H](C)C(=O)[C@H](C)[C@H]2N(CCc3ccc(Cl)cc3)C(=O)O[C@]12C [Example 24, 11-Deoxy-11-[carboxy(4-chlorophenethyl)amino]-3-O-[4-(S)-methyl-oxazolidin-2-one]carbamoyl-5-O-(3'-N-desmethyl-3'-N-cyclobutyl)desosaminyl-6-O-methyl-erythronolide A 11,12-(cyclic carbamate)]	0.251 nM	
